The results in this text go back to patent publication US20080292588A1, “1-METHYL-BENZO[1,2,4]THIADIAZINE 1-OXIDE DERIVATIVES” (Anadys Pharmaceuticals, Inc., priority 2007, published 2008).

As usually defined, the pIC50 is the IC50 on a negative log10 scale, so that one unit is a factor of ten.

The target of this experiment is HCV NS5B polymerase (Hepatitis C virus genotype 1b, UniProt Q9WMX2). In words: HCV NS5B polymerase inhibition assay (FlashPlate, [α-33P]GTP incorporation). In kind it is biochemical. The procedure:
Compounds were tested for HCV NS5B polymerase inhibition. Assays were performed in a 96-well streptavidin-coated FlashPlate using 20 nM enzyme, 1.4 μCi of [(α-^33P]GTP, 0.63 μM GTP, and 250 nM 5′biotinylated oligo (rG13)/poly rC in 20 mM Tris-HCl, pH 7.5, 5 mM MgCl2, 5 mM dithiothreitol, 0.1 g/L bovine serum albumin, and 100 U/ml RNAse inhibitor. The reaction was stopped by aspiration after 75 min at 28° C. and the plate was washed several times. After washing and drying the plate, incorporated radioactivity was counted using a Microbeta scintillation counter. IC50 values were calculated relative to the uninhibited control and inhibition data were fitted to a 4-parameter IC50 equation. For very potent inhibitors, the data were fitted to a tight binding quadratic equation to obtain IC50 values.

[1] abbreviates: 20 nM enzyme, 75 min at 28° C., read-out: NS5B IC50.
[2] abbreviates: read-out: NS5B polymerase inhibition IC50.

pIC50: −log10 of the molar value. Like-named read-outs stand apart in the source and are kept apart here. Where only a bound is given, the exact number is not on record here.

Sequence of HCV NS5B polymerase (Q9WMX2 2420-3010): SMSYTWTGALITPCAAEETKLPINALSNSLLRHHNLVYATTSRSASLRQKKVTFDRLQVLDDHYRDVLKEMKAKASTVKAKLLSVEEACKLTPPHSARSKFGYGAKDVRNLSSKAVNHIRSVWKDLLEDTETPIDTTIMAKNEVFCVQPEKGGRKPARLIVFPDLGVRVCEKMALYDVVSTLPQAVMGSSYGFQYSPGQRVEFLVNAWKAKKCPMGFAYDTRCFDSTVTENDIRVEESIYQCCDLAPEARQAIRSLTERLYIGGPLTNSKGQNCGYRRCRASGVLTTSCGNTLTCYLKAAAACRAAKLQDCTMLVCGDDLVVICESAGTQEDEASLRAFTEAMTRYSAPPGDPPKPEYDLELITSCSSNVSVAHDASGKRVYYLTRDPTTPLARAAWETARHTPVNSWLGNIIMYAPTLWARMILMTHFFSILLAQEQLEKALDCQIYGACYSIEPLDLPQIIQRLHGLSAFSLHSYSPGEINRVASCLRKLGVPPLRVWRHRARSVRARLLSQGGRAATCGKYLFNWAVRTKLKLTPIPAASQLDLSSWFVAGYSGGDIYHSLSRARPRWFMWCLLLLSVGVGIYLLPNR

As for `CS(=O)(=O)Nc1ccc2c(c1)S(C)(=O)=NC(C1=C(O)[C@H]3[C@H]([C@@H]4CC[C@H]3O4)N(Cc3ccc(F)cc3)C1=O)=N2` (mixture of isomers) [Compound 63, N-{3-[3-(4-fluoro-benzyl)-6-hydroxy-4-oxo-11-oxa-3-aza-tricyclo[6.2.1.0^2,7]undec-5-en-5-yl]-1-methyl-1-oxo-1λ^6-benzo[1,2,4]thiadiazin-7-yl}-methanesulfonamide], the pIC50 runs as follows: under setting [1], over 6.00; under setting [2], over 6.00.

Turning to `CC[C@H]1CC(O)=C(C2=Nc3ccc(NS(C)(=O)=O)cc3S(C)(=O)=N2)C(=O)N1Cc1ccc(F)cc1` (mixture of isomers) [Compound 75, N-{3-[6-(S)-Ethyl-1-(4-fluoro-benzyl)-4-hydroxy-2-oxo-1,2,5,6-tetrahydro-pyridin-3-yl]-1-methyl-1-oxo-1λ^6-benzo[1,2,4]thiadiazin-7-yl}-methanesulfonamide], the pIC50 under setting [1] was over 6.00 and the negative logarithm of the IC50 (pIC50) under setting [2] is over 6.00.

For `CC(C)(C)CCn1nc(-c2cccs2)c(O)c(C2=Nc3ccc(NS(C)(=O)=O)cc3S(C)(=O)=N2)c1=O` (racemic) [Compound 22, N-{3-[2-(3,3-dimethyl-butyl)-5-hydroxy-3-oxo-6-thiophen-2-yl-2,3-dihydro-pyridazin-4-yl]-1-methyl-1-oxo-1l6-benzo[1,2,4]thiadiazin-7-yl}-methanesulfonamide], the negative-log IC50 (pIC50) is over 6.00 under setting [1] and over 6.00 under setting [2].

For `CC(C)(C)CC[C@@]1(C)C(=O)C(C2=Nc3ccc(NS(C)(=O)=O)cc3S(C)(=O)=N2)=C(O)c2ccccc21` (mixture of isomers) [Compound 36, N-{3-[4-(3,3-dimethyl-butyl)-1-hydroxy-4-methyl-3-oxo-3,4-dihydro-naphthalen-2-yl]-1-methyl-1-oxo-1λ^6-benzo[1,2,4]thiadiazin-7-yl}-methanesulfonamide], the negative logarithm of the IC50 (pIC50) is, setting by setting: under setting [1], over 6.00; under setting [2], over 6.00.

Turning to `CC(C)(C)[C@H]1C(O)=C(C2=Nc3ccc(NS(C)(=O)=O)cc3S(C)(=O)=N2)C(=O)N1Cc1ccc(F)c(Cl)c1` (stereo in doubt) [Compound 32, N-{3-[5-tert-butyl-1-(3-chloro-4-fluoro-benzyl)-4-hydroxy-2-oxo-2,5-dihydro-1H-pyrrol-3-yl]-1-methyl-1-oxo-1λ^6-benzo[1,2,4]thiadiazin-7-yl}-methanesulfonamide], the negative logarithm of the IC50 (pIC50) runs as follows: under setting [1], over 6.00; under setting [2], over 6.00.

As to `CS1(=O)=NC(C2=C(O)[C@@H]3CCC[C@@H]3N(Cc3ccc(F)cc3)C2=O)=Nc2ccccc21` (stereo in doubt) [Compound 68, 1-(4-fluoro-benzyl)-4-hydroxy-3-(1-methyl-1-oxo-1λ^6-benzo[1,2,4]thiadiazin-3-yl)-1,4a,5,6,7,7a-hexahydro-[1]pyrindin-2-one], the pIC50 is, setting by setting: under setting [1], 4.00 to 6.00; under setting [2], over 4.00.

Take `CC(C)(C)CCn1nc(-c2cccs2)c(O)c(C2=Nc3ccc(NS(C)(=O)=O)cc3[S@@](C)(=O)=N2)c1=O` [Compound 23]: the pIC50 under setting [1] is over 6.00 and the pIC50 under setting [2] was over 6.00.

`CC(C)(C)CCn1nc(-c2cccs2)c(O)c(C2=Nc3ccc(NS(C)(=O)=O)cc3[S@](C)(=O)=N2)c1=O` [Compound 24]: the negative-log IC50 (pIC50) by setting is: under setting [1], 4.00 to 6.00; under setting [2], over 4.00.

On to `CC(C)(C)CCn1nc(N2CCCC2)c(O)c(C2=Nc3ccc(NS(C)(=O)=O)cc3S(C)(=O)=N2)c1=O` (stereo not drawn) [Compound 28, N-{3-[2-(3,3-dimethyl-butyl)-5-hydroxy-3-oxo-6-pyrrolidin-1-yl-2,3-dihydro-pyridazin-4-yl]-1-methyl-1-oxo-1λ^6-benzo[1,2,4]thiadiazin-7-yl}-methanesulfonamide], for which the pIC50 under setting [1] is over 6.00 and the pIC50 under setting [2] is over 6.00.

In the case of `CC(C)(C)CC[C@@]1(C)C(=O)C(C2=Nc3ccc(NS(C)(=O)=O)cc3[S@@](C)(=O)=N2)=C(O)c2ccccc21` [Compound 37], the negative logarithm of the IC50 (pIC50) under setting [1] is over 6.00 and the negative-log IC50 (pIC50) under setting [2] was over 6.00.

Take `CC(C)(C)CC[C@@]1(C)C(=O)C(C2=Nc3ccc(NS(C)(=O)=O)cc3[S@](C)(=O)=N2)=C(O)c2ccccc21` [Compound 38]: the pIC50 was over 6.00 under setting [1] and over 6.00 under setting [2].

Regarding `CS(=O)(=O)Nc1ccc2c(c1)S(C)(=O)=NC(C1=C(O)[C@@H]3[C@H]4CC[C@H](C4)[C@@H]3N(Cc3ccc(F)cc3)C1=O)=N2` (stereo partly drawn) [Compound 54, N-{3-[3-(4-fluoro-benzyl)-6-hydroxy-4-oxo-3-aza-tricyclo[6.2.1.0^2,7]undec-5-en-5-yl]-1-methyl-1-oxo-1λ^6-benzo[1,2,4]thiadiazin-7-yl}-methanesulfonamide], the pIC50 by setting is: under setting [1], over 6.00; under setting [2], over 6.00.
